Reference: US20180296530A1, “METHOD FOR TREATING ATOPIC DERMATITIS” (priority 2015, published 2018)
Entries after “also recorded” stand apart in the source; their conditions may differ.

Tests used:
[1] = Clinical trial: nocturnal urinary 6-sulfatoxymelatonin by ELISA; format: in vivo, human; conditions: after treatment with melatonin compared with placebo, P<0.001
Method: The first urine sample on the morning after each actigraphic examination was obtained. Levels of urinary 6-sulfatoxymelatonin were assayed by enzyme-linked immunosorbent assay with a commercialized kit (IBL International GmbH) and were used to represent the melatonin level throughout the previous night.

[2] = test system: Patients aged 1 to 18 years with physician-diagnosed AD; test: Clinical trial: polysomnography in a subgroup; format: in vivo, human; conditions: melatonin vs placebo, P>0.05
Method: Sleep was evaluated by actigraphy (Mini-Mitter Actiwatch; Philips-Respironics). Each participant wore the actigraphic device on the nondominant wrist for 3 consecutive nights starting 3 nights before each treatment period and for the last 3 nights of each treatment period. In a subgroup of patients who offered consent, polysomnography was performed on the night before the first day and on the last night of each treatment period.

[3] = test system: DNCB-induced AD mouse model; test: Example 6: dermatitis severity, topical melatonin cream in DNCB-induced AD mouse model; format: in vivo, Balb/c mice; conditions: for clinical score (dermatitis): day 1 to day 14, Day 15, DNCB group 10, Control 0
Method: Macroscopic assessment of the severity of dermatitis was determined by a scoring method as described previously. Briefly, the degree of each sign were scored as 0 (none), 1 (mild), 2 (moderate), and 3 (severe). This scoring was based on the severity of erythema (hemorrhage), edema, excoriation (erosion), and dryness (scaling). The total score (minimum 0 and maximum 12) from the four symptoms of each mouse were taken as the score for that mouse. Ear thickness was measured with a thickness gauge (Digimatic Indicator, Mitsutoyo, Tokyo). This assessment was performed on the last day of the experiment (Day 20) by an investigator who was blind to the grouping of the animals.
(§1) Four- to six-week-old Balb/c mice were maintained under specific pathogen-free conditions. Animals were housed in an air-conditioned animal room (25±1° C.; relative humidity 40±5%) and were fed a laboratory diet and distilled water. Animal care and handling protocols were approved by the Animal Committee of the College of Medicine, Taiwan University, and all procedures were conducted in accordance with the U.S. National Institute of Health guidelines.
(§2) The protocol for establishing an AD mouse model in this Example was modified from those described previously. Briefly, referring to FIG. 12, DNCB-induced AD mouse model was prepared by the repeated applications of 20 μL of 1% DNCB in acetone/olive oil (4:1) to the outer and inner surfaces of mouse ears and 100 μL of the same solution to the shaved back skin once on days 1 and 4. Mice of Control group were treated with the identical volumes of vehicle.
The DNCB-sensitized mice were randomly assigned to one of four groups: DNCB, DNCB+0.1% topical melatonin, DNCB+1% topical melatonin, DNCB+8% topical melatonin. Each group (including Control group) consisted of 3 mice. On days 8 and 11, sensitized mice was challenged by applying 0.2% DNCB to the skin surfaces. For the three groups treated with topical melatonin groups, 0.1 mg of topical melatonin cream was given twice a day from day 1 to day 14. The cream base consisted of a mixture of tefose 63, octyldodecyl myristate, sorbic acid, methyl paraben sodium, ddH2O, and apricot kernel oil. For Control and DNCB groups, 0.1 mg of cream base was given twice a day from day 1 to day 14. This experiment was ended at Day 15.
The dermatitis severity of each mouse treated with or without melatonin was evaluated in the same manner as those described in Example 5. This evaluation was performed on the last day of the experiment (Day 15) by an investigator who was blind to the grouping of the animals.

[4] = Clinical trial: adverse events; format: in vivo, human; conditions: oral melatonin 3 mg/d, 4 weeks, children with AD
Method: Visits occurred at the start of the prescreening and on the first and last day of each treatment period, during which AD disease severity was assessed, blood and urine samples were collected, questionnaires evaluating subjective symptoms were filled out, and pill count and adverse events were recorded.

[5] = test system: DNCB-induced AD mouse model; test: Example 5: dermatitis severity, topical melatonin in DNCB-induced AD mouse model; format: in vivo, Balb/c mice
Method: as §1
as §2, with “FIG. 4,” for “FIG. 12,”, “days 1, 2,” for “days 1”, “and 3.” for “and 4.”, “vehicle. […]” for “vehicle.”
Macroscopic assessment of the severity of dermatitis was determined by a scoring method as described previously. Briefly, the degree of each sign were scored as 0 (none), 1 (mild), 2 (moderate), and 3 (severe). […] Ear thickness was measured with a thickness gauge (Digimatic Indicator, Mitsutoyo, Tokyo). […]

COc1ccc2[nH]cc(CCNC(C)=O)c2c1 [Melatonin, melatonin]
Nocturnal urinary 6-sulfatoxymelatonin levels [1]: significantly increased | effect on the stages of sleep and limb movement [2]: did not have a significantly different effect | clinical score (dermatitis) ([3]; 0.1% melatonin cream twice a day): 7 | gross skin findings ([3]; 0.1%, 1%, and 8% topical melatonin, 8% improved the skin severity most): improved the gross skin findings in a dose-dependent manner | clinical score (dermatitis) ([3]; 8% melatonin cream twice a day): 2 | Ear thickness ([3]; after 8% melatonin treatment, FIG. 14): significantly improved | adverse events [4]: no adverse event was reported; also recorded: no adverse effect of medication was reported | gross findings of dermatitis ([5]; DNCB-stimulated mice treated with melatonin, FIG. 5, less skin erythema, less skin excoriation, improved hair growth): dermatitis was improved | Dermatitis clinical score ([5]; after topical melatonin treatment, decreased from 12, total score 0 to 12, Day 20, concentration not given): 3
